Results from patent US20220267356A1, “ARGINASE INHIBITORS AND METHODS OF USE THEREOF” (AstraZeneca AB, priority 2019, published 2022).
Read-outs that look alike come from different tables or passages of the source.

Tests used:
Human Arginase 1 = target: T1, Human Arginase 1 (Homo sapiens, UniProt P05089); assay: Human Arginase 1 enzyme inhibition (thioarginine/DTNB absorbance at 412 nm); type: biochemical; conditions: recombinant enzyme 5 nM, 60 min, room temperature
T1 construct: made in house; host or cells: E. coli
T1 sequence (P05089 1-322): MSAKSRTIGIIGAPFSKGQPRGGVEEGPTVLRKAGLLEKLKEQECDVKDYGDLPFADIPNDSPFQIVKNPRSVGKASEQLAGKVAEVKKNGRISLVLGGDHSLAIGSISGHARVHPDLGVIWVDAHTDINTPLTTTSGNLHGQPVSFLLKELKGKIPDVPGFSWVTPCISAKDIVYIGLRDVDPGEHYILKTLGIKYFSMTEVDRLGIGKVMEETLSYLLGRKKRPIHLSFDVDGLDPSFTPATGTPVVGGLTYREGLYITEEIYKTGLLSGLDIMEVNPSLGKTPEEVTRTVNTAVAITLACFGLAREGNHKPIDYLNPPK
Excerpt: (§1) The inhibitory effects of Examples 1-26 on the activity of Human Arginase 1 and Arginase 2 activity were quantified by measuring the formation of the thiol group from thioarginine using recombinant Arginase 1 or Arginase 2 produced from E. coli. The thiol group was detected with Ellman's reagent, 5,5′-dithiobis(2-nitrobenzoic acid) (DTNB). DTNB reacts with the thiol to give the mixed disulfide and 2-nitro-5-thiobenzoic acid (TNB) which is quantified by the absorbance of the anion (TNB^2−) at 412 nm.
(§2) The assays were run in clear 384 well plates (Greiner cat no: 781101). Various concentrations of Examples 1-26 in 300 nL DMSO were dispensed to assay plates using an Echo acoustic dispenser immediately followed by plate sealing and centrifugation. Two pre-mixes were prepared from reagents thawed immediately before addition to assay plates. Pre-mix one comprised human Arginase 1 or human Arginase 2, at a final concentration of 5 nM and 0.5 mM DTNB in assay buffer, 45 mM HEPES pH7.5, brij 35, 0.045% (w/v) and 100 μM MnCl2. Pre-mix two comprised freshly thawed 0.5 mM thioarginine in assay buffer. Fifteen microlitres of pre-mix one was dispensed to assay plates containing Examples 1-9, centrifuged and incubated for 30 minutes at room temperature prior to adding fifteen microlitres of pre-mix two.
(§3) Assay plates were centrifuged prior to reading absorbance at 412 nm in a Pherastar multi-mode plate reader to collect data at time point 0 (T0). The plates were incubated at room temperature for 60 min prior to reading again to collect data at time point 1 (T1). Data is derived by subtracting the A412 signal measured at T0 (time point 0) from that measured at T1 (time point 1). The data was transformed to % effect using the equation:
(§4) Compound % effect=100*[(X−min)/(max−min)],
(§5) where X represents the normalized value for the compound based on the Min (vehicle) and Max (reference compound) inhibition control.
(§6) The concentration of Examples 1-26 that inhibited the activity by 50% (i.e.the IC50) was calculated by plotting the % effect versus test compound concentration and fitting the data using the Genedata Screener Smart fit algorithm.

Human Arginase 2 = target: T2, Human Arginase 2 (Homo sapiens, UniProt P78540); assay: Human Arginase 2 enzyme inhibition (thioarginine/DTNB absorbance at 412 nm); type: biochemical; conditions: recombinant enzyme 5 nM, 60 min, room temperature
T2 construct: made in house; host or cells: E. coli
T2 sequence (P78540 23-354): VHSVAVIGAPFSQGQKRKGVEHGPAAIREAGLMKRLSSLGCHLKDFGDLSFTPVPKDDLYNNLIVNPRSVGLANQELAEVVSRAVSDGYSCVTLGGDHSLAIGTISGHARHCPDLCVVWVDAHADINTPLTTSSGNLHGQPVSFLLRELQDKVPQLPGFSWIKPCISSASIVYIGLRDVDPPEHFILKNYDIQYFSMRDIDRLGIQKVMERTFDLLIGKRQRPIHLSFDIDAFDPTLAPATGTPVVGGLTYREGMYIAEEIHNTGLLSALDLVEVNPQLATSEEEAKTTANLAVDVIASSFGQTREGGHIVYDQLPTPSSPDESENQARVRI
Excerpt: as §1, §2, §3, §4, §5, §6

[1] = Bioavailability / pharmacokinetic study in male rats (IV and PO); type: in vivo; conditions: rat; for bioavailability: 5 mg/kg, pro-drug when dosed as pro-drug, PO vs IV; for Vd: read-out: Vdss; for AUC / Cmax / Tmax: PO 5 mg/kg
Description: Example 14 is a prodrug form of Example 1. Examples 19 to 22 and 24 to 26 are prodrugs of example 18. […] Example 19 was formulated in 0.9% w/v saline pH 4 (adjusted with 1 M HCl) for IV dosing. The formulation was dosed at 2 mg/kg by femoral catheter to two male rats each (170-250 g). Jugular vein catheter serial blood samples were taken at 0.033, 0.083, 0.167, 0.5, 1, 2, 4, 8, and 24 hrs post-dose. For PO dosing, Example 19 was formulated in deionized water pH 4 (adjusted with 1 M HCl) and dosed at 5 mg/kg by oral gavage to two male rats each (170-250 g). Serial blood samples were taken by jugular vein catheter at 0.25, 0.5, 1, 1.5, 2, 3, 4, 8, and 24 hrs post dose. Plasma samples were generated from blood using low speed centrifugation. A single set of calibration standards containing Example 18 and Example 19 were prepared by spiking blank plasma. The samples and standards were extracted by precipitation with two volumes of acetonitrile followed by centrifugation. The results obtained were used to determine the Cl (mL/min/kg), Vdss (L/kg), Cmax (μM), AUC (μM h), tmax (h), and % F for both Example 18 and Example 19. Absolute bioavailability was determined by comparing the PO dose normalized AUC of Example 18 when dosed as Example 19, versus the dose normalized IV AUC of Example 18 when dosed as Example 18. Where appropriate, measured, not nominal, doses were used in the calculation. In an analogous fashion, the same procedure was repeated for Examples 14, 20 to 22, and 24 to 26.

[2] = pro-drug in plasma when dosed as pro-drug, IV 2 mg/kg
[3] = pro-drug in plasma when dosed as pro-drug
[4] = plasma, payload when dosed as payload, IV

| SMILES | IC50 (Human Arginase 1) [µM] | IC50 (Human Arginase 2) [µM] | bioavailability ([1]; plasma) [%] | clearance [1, 2] [L/h/kg] | Vd [1, 2] [L/kg] | AUC [1, 3] [nM·h] | Cmax [1, 3] [µM] | Tmax [1, 3] [min] | clearance [1, 4] [L/h/kg] | Vd [1, 4] [L/kg] |
| --- | --- | --- | --- | --- | --- | --- | --- | --- | --- | --- |
| CC[C@H](N)C(=O)NC[C@@H](CCCB(O)O)[C@H](N)C(=O)O [Example 9, (2S,3R)-2-amino-3-(((S)-2-aminobutanamido)methyl)-6-boronohexanoic acid] | 0.18 | 0.41 | – | – | – | – | – | – | – | – |
| CN[C@H](C(=O)O)[C@@H](CN)CCCB(O)O [Example 12, (2S,3R)-3-(aminomethyl)-6-borono-2-(methylamino)hexanoic acid] | 0.4 | 1.08 | – | – | – | – | – | – | – | – |
| NCC(=O)NC[C@H](CCCB(O)O)[C@H](N)C(=O)O [Example 24, (2S,3S)-2-amino-3-((2-aminoacetamido)methyl)-6-boronohexanoic acid] | 0.022 | 0.065 | 6.4 | 0.504 | 0.2 | 2900 | 0.88 | 105 | – | – |
| CNC(=O)[C@@H](CCCB(O)O)[C@H](N)C(=O)O [Example 17, (2S,3S)-2-amino-6-borono-3-(methylcarbamoyl)hexanoic acid] | 34.2 | > 100 | – | – | – | – | – | – | – | – |
| CC(C)[C@H](N)C(=O)NC[C@H](CCCB(O)O)[C@H](N)C(=O)O [Example 19, (2S,3S)-2-amino-3-(((S)-2-amino-3-methylbutanamido)methyl)-6-boronohexanoic acid] | 0.06 | 0.11 | 8.3 | 0.984 | 0.47 | 1400 | 0.66 | 30 | – | – |
| C[C@H](N)C(=O)NC[C@@H](CCCB(O)O)[C@H](N)C(=O)O [Example 10, (2S,3R)-2-amino-3-(((S)-2-aminopropanamido)methyl)-6-boronohexanoic acid] | 0.16 | 0.36 | – | – | – | – | – | – | – | – |
| CC(C)[C@H](N)C(=O)NC[C@@H](CCCB(O)O)[C@H](N)C(=O)O [Example 8, (2S,3R)-2-amino-3-(((S)-2-amino-3-methylbutanamido)methyl)-6-boronohexanoic acid] | 0.15 | 0.49 | – | – | – | – | – | – | – | – |
| NC[C@H](CCCB(O)O)[C@H](N)C(=O)O [Example 18, (2S,3S)-2-amino-3-(aminomethyl)-6-boronohexanoic acid] | 0.09 | 0.22 | – | – | – | – | – | – | 0.438 | 0.38 |
| CC[C@H](N)C(=O)NC[C@H](CCCB(O)O)[C@H](N)C(=O)O [Example 21, (2S,3S)-2-amino-3-(((S)-2-aminobutanamido)methyl)-6-boronohexanoic acid] | 0.039 | 0.061 | 1.5 | 0.846 | 0.22 | 350 | 0.23 | 30 | – | – |
| C[C@H](N)C(=O)N[C@H](C(=O)O)[C@@H](CN)CCCB(O)O [Example 14, (2S,3R)-3-(aminomethyl)-2-((S)-2-aminopropanamido)-6-boronohexanoic acid] | 2.18 | 3.9 | – | 2.77 | 0.47 | – | 0.13 | 15 | – | – |
| CC(C)[C@H](N)C(=O)N[C@H](C(=O)O)[C@H](CN)CCCB(O)O [Example 26, (2S,3S)-3-(aminomethyl)-2-[[(2S)-2-amino-3-methyl-butanoyl]amino]-6-borono-hexanoic acid] | 2.56 | 2.03 | – | 1.6 | 0.15 | – | – | – | – | – |
| NCC[C@@H](CCCB(O)O)[C@H](N)C(=O)O [Example 15, (2S,3R)-2-amino-3-(2-aminoethyl)-6-boronohexanoic acid] | 0.22 | 0.48 | – | – | – | – | – | – | – | – |
| CC(=O)NC[C@@H](CCCB(O)O)[C@H](N)C(=O)O [Example 11, (2S,3R)-3-(acetamidomethyl)-2-amino-6-boronohexanoic acid] | 5.08 | 5.89 | – | – | – | – | – | – | – | – |
| CC(C)(C)[C@H](N)C(=O)NC[C@H](CCCB(O)O)[C@H](N)C(=O)O [Example 23, (2S,3S)-2-amino-3-(((S)-2-amino-3,3-dimethylbutanamido)methyl)-6-boronohexanoic acid] | 0.03 | 0.1 | – | – | – | – | – | – | – | – |
| CNC[C@@H](CCCB(O)O)[C@H](N)C(=O)O [Example 4, (2S,3R)-2-amino-6-borono-3-((methylamino)methyl)hexanoic acid] | 0.87 | 0.77 | – | – | – | – | – | – | – | – |
| NC(=O)[C@@H](CCCB(O)O)[C@H](N)C(=O)O [Example 16, (2S,3S)-2-amino-6-borono-3-carbamoylhexanoic acid] | 19.2 | 54.4 | – | – | – | – | – | – | – | – |
| N[C@H](C(=O)O)[C@H](CCCB(O)O)CN1CCOCC1 [Example 2, (2S,3R)-2-amino-6-borono-3-(morpholinomethyl)hexanoic acid] | 38.6 | 85.2 | – | – | – | – | – | – | – | – |
| NC(=O)NC[C@@H](CCCB(O)O)[C@H](N)C(=O)O [Example 7, (2S,3R)-2-amino-6-borono-3-(ureidomethyl)hexanoic acid] | 2.73 | 5.58 | – | – | – | – | – | – | – | – |
| C[C@H](N)C(=O)N[C@H](C(=O)O)[C@H](CN)CCCB(O)O [Example 25, (2S,3S)-3-(aminomethyl)-2-[[(2S)-2-aminopropanoyl]amino]-6-borono-hexanoic acid] | 0.068 | 0.15 | – | 1.7 | 0.18 | – | 0.04 | 15 | – | – |
| C[C@H](N)C(=O)NC[C@H](CCCB(O)O)[C@H](N)C(=O)O [Example 20, (2S,3S)-2-amino-3-(((S)-2-aminopropanamido)methyl)-6-boronohexanoic acid] | 0.009 | 0.14 | 5.1 | 0.75 | 0.21 | 1250 | 0.44 | 45 | – | – |
| CN(C)C[C@@H](CCCB(O)O)[C@H](N)C(=O)O [Example 5, (2S,3R)-2-amino-6-borono-3-((dimethylamino)methyl)hexanoic acid] | 2.09 | 4.31 | – | – | – | – | – | – | – | – |
| N[C@H](C(=O)O)[C@H](CCCB(O)O)CN1CCCCC1 [Example 3, (2S,3R)-2-amino-6-borono-3-(piperidin-1-ylmethyl)hexanoic acid] | 7.06 | 16.3 | – | – | – | – | – | – | – | – |
| CC(C)[C@H](N)C(=O)N[C@H](C(=O)O)[C@@H](CN)CCCB(O)O [Example 13, (2S,3R)-2-((S)-2-Amino-3-methylbutanamido)-3-(aminomethyl)-6-boronohexanoic acid] | 13.2 | 9.46 | – | – | – | – | – | – | – | – |
